Measured values as given in the supplement of paper PMC10307832.

Legend:
Assay in all cases: relative viability (nuclei count vs DMSO), 5 days (fraction); higher = more cells survive
[1] = compound: CC(C)=CC[C@@H](O)C1=CC(=O)c2c(O)ccc(O)c2C1=O [Shikonin] + COc1cc2c(Oc3ccc(NC(=O)C4(C(=O)Nc5ccc(F)cc5)CC4)cc3F)ccnc2cc1OCCCN1CCOCC1 [Foretinib] (partner 0.25 µM)
Summary of the method: (§1)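 Dosing by pin tool came one day after lung cancer cell lines were seeded in 1536-well plates, using either one drug or a fixed anchor-drug dose plus five library-drug doses (not always all listed) in √10 steps. After 5 days, nuclei were counted on 4× images. Relative viability is treated-well nuclei count divided by vehicle-well nuclei count, and values are medians of duplicate plates.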

[2] = compound: CC(C)=CC[C@@H](O)C1=CC(=O)c2c(O)ccc(O)c2C1=O [Shikonin] + CS(=O)(=O)CCNCc1ccc(-c2ccc3ncnc(Nc4ccc(OCc5cccc(F)c5)c(Cl)c4)c3c2)o1 [Lapatinib] (partner 2 µM)
Summary of the method: as §1

[3] = compound: CC(C)N(CCCNC(=O)Nc1ccc(C(C)(C)C)cc1)C[C@H]1O[C@@H](n2ccc3c(N)ncnc32)[C@H](O)[C@@H]1O + COc1cccc2cc(-c3nc([C@H]4CC[C@H](C(=O)O)CC4)n4ncnc(N)c34)[nH]c12 [OSI-027] (partner 0.5 µM)
Summary of the method: as §1

[4] = compound: CC(C)N(CCCNC(=O)Nc1ccc(C(C)(C)C)cc1)C[C@H]1O[C@@H](n2ccc3c(N)ncnc32)[C@H](O)[C@@H]1O + O=C(c1cc(Cc2n[nH]c(=O)c3ccccc23)ccc1F)N1CCN(C(=O)C2CC2)CC1 [Olaparib] (partner 8 µM)
Summary of the method: as §1

Row | Cell Line | relative viability ([1]; first compound 0.01 µM) | relative viability ([1]; first compound 0.1 µM) | relative viability ([1]; first compound 0.3162 µM) | relative viability ([1]; first compound 1 µM) | relative viability ([2]; first compound 0.01 µM) | relative viability ([2]; first compound 0.1 µM) | relative viability ([2]; first compound 0.3162 µM) | relative viability ([2]; first compound 1 µM) | relative viability ([3]; first compound 0.08 µM) | relative viability ([3]; first compound 0.253 µM) | relative viability ([3]; first compound 0.8 µM) | relative viability ([3]; first compound 2.53 µM) | relative viability ([3]; first compound 8 µM) | relative viability ([4]; first compound 0.08 µM) | relative viability ([4]; first compound 0.253 µM) | relative viability ([4]; first compound 0.8 µM) | relative viability ([4]; first compound 2.53 µM) | relative viability ([4]; first compound 8 µM)
1 | NCI-H2347 | 1.15 | 1.27 | 0.835 | 0.953 | 0.981 | 1.01 | 1.08 | 0.913 | 0.459 | 0.427 | 0.413 | 0.574 | 0.509 | 0.525 | 0.593 | 0.534 | 0.655 | 0.548
2 | NCI-H2405 | 1.06 | 1.08 | 1.15 | 1.03 | 1.13 | 1.28 | 1.11 | 1.16 | 0.626 | 0.678 | 0.684 | 0.668 | 0.592 | 0.854 | 0.906 | 0.755 | 0.961 | 0.842
3 | NCI-H3122 | 0.959 | 0.997 | 0.947 | 1.01 | 0.973 | 1.13 | 1 | 1.04 | 0.897 | 1.02 | 0.925 | 0.926 | 0.722 | 0.684 | 0.632 | 0.536 | 0.663 | 0.512
4 | PC-3 [JPC-3] | 1.06 | 1.16 | 1.1 | 1.1 | 0.443 | 0.512 | 0.479 | 0.543 | 0.801 | 0.867 | 0.718 | 0.779 | 0.721 | 1.12 | 1.15 | – | 1.11 | 1.07
5 | PC-14 | 0.914 | 1 | 1.15 | 1.09 | 0.334 | 0.342 | 0.329 | 0.326 | 0.826 | 0.802 | 0.786 | 0.872 | 0.745 | 0.303 | 0.249 | 0.281 | 0.257 | 0.247
6 | RERF-LC-KJ | 0.904 | 0.961 | 0.903 | 0.908 | 0.972 | 0.939 | 0.83 | 0.941 | 0.551 | 0.624 | 0.679 | 0.529 | 0.453 | 0.887 | 1.04 | 0.843 | 1 | 0.963
7 | SK-LU-1 | 0.869 | 0.907 | 0.863 | 0.788 | 1.07 | 0.869 | 0.724 | 0.786 | 0.372 | 0.424 | 0.352 | 0.405 | 0.338 | 0.424 | 0.448 | 0.516 | 0.552 | 0.469
8 | SK-MES-1 | 1.01 | 1.2 | 0.965 | 0.939 | 0.543 | 0.509 | 0.514 | 0.463 | 0.615 | 0.685 | 0.586 | 0.619 | 0.586 | 0.83 | 0.811 | 0.734 | 0.713 | 0.662
9 | SW 1573 | 0.929 | 0.894 | 1.13 | 0.765 | 1.07 | 1.18 | 1.14 | 1.19 | 0.501 | 0.679 | 0.635 | 0.683 | 0.705 | 0.464 | – | 0.517 | 0.441 | 0.53
